Data set [1] in a line: in vitro. To be noted: human, Caco-2, pH 7.4.
Method: (§1) 2 μM dosing solutions for reference compounds and test compounds are prepared by spiking the appropriate volume of intermediate solution to TB with and without 1 μM Zosuquidar. The final concentration of DMSO is no more than 1% (v/v).
(§2) Caco-2 cells are grown in MEM supplemented with 2 mM L-glutamine, 10% FBS, 100 U/mL penicillin-G and 100 μg/mL streptomycin. The cells are incubated at 37° C., 5% CO2 and relatively saturated humidity. After reaching 80-90% confluency, the cells are gently detached with 0.05% trypsin-EDTA solution.
(§3) TB and dosing solutions were pre-warmed to 37° C. before transport assay. The cell monolayer was washed twice with HBSS containing 10 mM HEPES. For A-B (apical to basolateral) directional transport assay, 75 μL dosing solution is added to the apical well. Fill each basolateral well with 250 μL TB. For B-A (basolateral to apical) directional transport assay, 250 μL of dosing solution is added to the basolateral well after filling each apical well with 75 μL TB. […] The plates are incubated for 120 minutes at 37° C. with 5% CO2 and saturated humidity. The time zero samples are generated by mixing 50 μL initial dosing solution of test compound or reference compound with 100 μL TB and 250 μL quench solution (acetonitrile (ACN) or other appropriate solvent with internal standard(s), based on the bioanalytical method development). At 120 minutes, 150 μL of solution is collected from each A-B receiver well followed by addition of 250 μL quench solution to get A-B receiver sample. And for other samples (A-B donor, B-A donor and receiver), 50 μL of solution is collected from each corresponding well followed by addition of 250 μL quench solution and 100 μL TB. All samples are vortex-mixed and centrifuged at 3220 g for 20 minutes. Subsequently, supernatant is diluted with ultra pure water for LC-MS/MS analysis. The concentrations of test compound in all samples are determined by LC-MS/MS and expressed as peak area ratio of analyte to internal standard.
(§4) The concentration of samples is expressed using the peak area ratio of Analyte to Internal Standard (Analyte/IS).
(§5) The efflux ratio is calculated using the following equation: Efflux ratio=Papp(A−B)/Papp(B−A) • where Papp (A−B) and Papp (B−A) are the Papp values of compound in Apical to Basolateral and Basolateral to Apical directional transport, respectively.
The target of data set [2] is T1, A2A receptor (Homo sapiens, UniProt P29274). The data set can be described thus: Human IL-2 T cell assay (restoration of IL-2 production in CGS-21680-treated CD3+ T cells). It counts as cell-based. Details: endogenous in cells; host or cells: human CD3+ T cells isolated from venous blood of healthy volunteers. The text has this:
When T-cells are activated, they produce pro-inflammatory cytokines. When the A2A receptor is activated in T cells, the amount of cytokines produced in response to stimulation of T-cells is reduced.
Venous blood from healthy volunteers, all of whom signed an informed consent approved by the Ethics Committee (FOR-UIC-BV-050-01-01 ICF_HBS_HD Version 5.0), was obtained via ImmuneHealth (Centre Hospitalier Universitaire Tivoli, La Louviere, Belgium). Mononuclear cells were collected by density gradient centrifugation, using SepMate-50 tubes (StemCell Technologies, Grenoble, France) and Lymphoprep (Axis-shield, Oslo, Norway) according to the manufacturer's instructions. CD3+ T cells were isolated by immunomagnetic negative selection, using the EasySep Human T Cell Isolation Kit (StemCell Technologies) as per manufacturer's instructions. CD3+ T cells were stored in heat inactivated foetal bovine serum (hiFBS; Gibco, ThermoFisher Scientific, Merelbeke, Belgium) containing 10% DMSO in liquid nitrogen.
Human purified CD3+ T cells were thawed and washed twice with RPMI1640 medium (with UltraGlutamine; Lonza, Verviers, Belgium) supplemented with 1× non-essential amino acids (Lonza), 2% Pen/Strep (Lonza) and 1 mM Sodium Pyruvate (Gibco) (complete media), containing 10% hiFBS. The cells were suspended either in complete media containing 20% hiFBS or in 100% heat inactivated human serum (hiHS; Sigma-Aldrich, Diegem, Belgium). Cells were activated by adding anti-CD3 and anti-CD28 coated microbeads (Dynabeads human T-activator CD3/CD28; Life Technologies, Paisley, UK), suspended either in complete media containing 20% hiFBS or in 100% hiHS. […] Serial dilutions of the compounds of the present invention were prepared and added to the wells. The cells were placed in a 37° C. humidified tissue culture incubator with 5% CO2 for 72 hours. After 72 hours, supernatants were sampled and IL-2 was quantified using the IL-2 (human) AlphaLISA Biotin-Free Detection Kit (AL333F; Perkin-Elmer, Zaventem, Belgium), according to the manufacturer's instructions.

In data set [3] the target is T1, A2A receptor. The data set is described as follows: Inhibition of cAMP production in HEK cells. The data set is classed as cell-based. To be noted: HEK-293 cells with A2A receptor. (Cyclic AMP is a second messenger, typically raised through Gs and lowered through Gi signalling.)
Data set [4] deals with Caco-2 cells. The data set can be described thus: Permeability and efflux in Caco-2 cells. To be noted: Caco-2 monolayer, 2 μM, 120 minutes, pH 7.4.
Method: as §1, §2, §3, §4, §5
Data set [5] deals with A2AR (Mus musculus, UniProt Q60613). To be noted: for Score (locomotion / immobility): score observed in at least 60-100% of mice for 30 minutes.
[6] abbreviates: IC50 (nM) (5000 nM CGS-21680 as agonist, 50% HSA), restoration of IL-2 production, human CD3+ T cells, anti-CD3/CD28 beads, 5000 nM CGS-21680, 50% HSA, 72 hours.
[7] abbreviates: IC50 (nM) (3 nM NECA as agonist, 0.1% BSA), 3 nM NECA as agonist, 0.1% BSA.
Setting [8] is: IC50 (nM) (5 nM NECA as agonist, 2% HSA), 5 nM NECA as agonist, 2% HSA.
Setting [9] is: IC50 (nM) (5 μM Adenosine as agonist, 2.0% HSA), 5 μM Adenosine as agonist, 2.0% HSA.
Setting [10] is: IC50 (nM) (500 nM CGS-21680 as agonist, 10% FBS), restoration of IL-2 production, human CD3+ T cells, anti-CD3/CD28 beads, 500 nM CGS-21680, 10% FBS, 72 hours.
Where [11] appears, read: IC50 (nM) (500 nM CGS-21680 as agonist, 50% HSA), restoration of IL-2 production, human CD3+ T cells, anti-CD3/CD28 beads, 500 nM CGS-21680, 50% HSA, 72 hours.

Read-outs that look alike come from different tables or passages of the source.

T1 sequence (P29274 whole entry): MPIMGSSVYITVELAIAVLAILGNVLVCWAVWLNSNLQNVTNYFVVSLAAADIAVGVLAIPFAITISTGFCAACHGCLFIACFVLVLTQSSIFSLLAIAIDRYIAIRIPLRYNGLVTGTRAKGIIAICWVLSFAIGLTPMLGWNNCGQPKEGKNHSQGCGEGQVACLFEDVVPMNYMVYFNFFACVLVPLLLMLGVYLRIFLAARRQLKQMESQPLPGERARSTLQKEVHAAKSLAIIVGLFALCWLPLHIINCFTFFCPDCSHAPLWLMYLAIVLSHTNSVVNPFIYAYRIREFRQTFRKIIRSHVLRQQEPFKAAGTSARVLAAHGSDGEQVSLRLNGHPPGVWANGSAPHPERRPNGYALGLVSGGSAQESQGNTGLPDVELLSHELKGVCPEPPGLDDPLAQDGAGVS
Sequence of A2AR (Q60613 whole entry): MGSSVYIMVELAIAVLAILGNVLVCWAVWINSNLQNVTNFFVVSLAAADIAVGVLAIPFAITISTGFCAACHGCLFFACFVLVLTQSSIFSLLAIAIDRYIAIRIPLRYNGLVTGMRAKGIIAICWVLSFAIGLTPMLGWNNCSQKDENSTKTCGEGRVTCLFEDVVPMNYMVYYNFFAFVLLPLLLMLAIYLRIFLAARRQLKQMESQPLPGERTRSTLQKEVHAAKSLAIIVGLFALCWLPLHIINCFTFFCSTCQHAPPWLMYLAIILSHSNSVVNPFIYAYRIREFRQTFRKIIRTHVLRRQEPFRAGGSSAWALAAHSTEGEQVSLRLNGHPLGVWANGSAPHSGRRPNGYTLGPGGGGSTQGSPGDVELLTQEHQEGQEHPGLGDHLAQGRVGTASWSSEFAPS

As a reminder, the efflux ratio is the permeability from basolateral to apical divided by that in the opposite direction, in the common usage. What is called IC50 is the concentration that gives 50% inhibition. Regarding `Nc1nc2c(sc(=O)n2CCN2CCN(c3ccc(OCc4nc[nH]n4)cc3F)CC2)c2nc(-c3ccco3)nn12` [Compound 49, 3-(2-(4-(4-((1H-1,2,4-triazol-3-yl)methoxy)-2-fluorophenyl)piperazin-1-yl)ethyl)-5-amino-8-(furan-2-yl)thiazolo[5,4-e][1,2,4]triazolo[1,5-c]pyrimidin-2(3H)-one], the efflux ratio at 120 min, 2 μM in data set [1] came out at 97. In addition, the 50% inhibitory concentration (IC50) stood at 61 nM in data set [2] (setting [6]), 0.5 nM in data set [3] (setting [7]), 16 nM in data set [3] (setting [8]) and 465 nM in data set [3] (setting [9]).

With `Nc1nc2c(sc(=O)n2CCN2CCN(c3cc(O[C@H]4CNC[C@@H]4F)c(F)cc3F)CC2)c2nc(-c3ccco3)nn12` [Compound 92, 5-amino-3-(2-(4-(2,4-difluoro-5-(((3S,4S)-4-fluoropyrrolidin-3-yl)oxy)phenyl)piperazin-1-yl)ethyl)-8-(furan-2-yl)thiazolo[5,4-e][1,2,4]triazolo[1,5-c]pyrimidin-2(3H)-one], in data set [4], the Efflux ratio is given as 101. The IC50 in data set [3] (setting [7]) amounted to 0.7 nM; in data set [3] (setting [9]) it was 388 nM.

With `CNCCNC(=O)COc1ccc(N2CCN(CCn3c(=O)sc4c3nc(N)n3nc(-c5ccco5)nc43)CC2)c(F)c1` [Compound 50, 2-(4-(4-(2-(5-amino-8-(furan-2-yl)-2-oxothiazolo[5,4-e][1,2,4]triazolo[1,5-c]pyrimidin-3(2H)-yl)ethyl)piperazin-1-yl)-3-fluorophenoxy)-N-(2-(methylamino)ethyl)acetamide], in data set [1], the efflux ratio at 120 min, 2 μM is 38. In addition, the IC50 turned out to be 4.3 nM in data set [2]; 1 nM in data set [2] (setting [10]); 2.2 nM in data set [2] (setting [11]); 28 nM in data set [2] (setting [6]); 0.3 nM in data set [3] (setting [7]); 13 nM in data set [3] (setting [9]).

As for `CNCCNC(=O)c1ccc(N2CCN(CCn3c(=O)sc4c3nc(N)n3nc(-c5ccco5)nc43)CC2)c(F)c1` [Compound 31, 4-(4-(2-(5-amino-8-(furan-2-yl)-2-oxothiazolo[5,4-e][1,2,4]triazolo[1,5-c]pyrimidin-3(2H)-yl)ethyl)piperazin-1-yl)-3-fluoro-N-(2-(methylamino)ethyl)benzamide], in data set [1], the efflux ratio at 120 min, 2 μM was determined as 28. Besides, the IC50 in data set [2] was 8.3 nM; in data set [2] (setting [10]), 2.1 nM; in data set [2] (setting [11]), 5.4 nM; in data set [2] (setting [6]) it was 14 nM; in data set [3] (setting [7]), 0.4 nM; in data set [3] (setting [8]), 1 nM. For the same molecule, in data set [3] (setting [9]), the IC50 was found to be 42 nM.

For `Nc1nc2c(sc(=O)n2CCN2CCN(c3ccc(OCc4c[nH]nn4)cc3F)CC2)c2nc(-c3ccco3)nn12` [Compound 1, 3-(2-(4-(4-((1H-1,2,3-triazol-4-yl)methoxy)-2-fluorophenyl)-piperazin-1-yl)ethyl)-5-amino-8-(furan-2-yl)thiazolo[5,4-e][1,2,4]triazolo[1,5-c]pyrimidin-2(3H)-one], the efflux ratio at 120 min, 2 μM in data set [1] was determined as 48. Besides, the IC50 in data set [2] (setting [6]) came to 120 nM; in data set [3] (setting [7]), 0.6 nM; in data set [3] (setting [8]), 9 nM; in data set [3] (setting [9]), 511 nM.

Take `CC(C)(Oc1ccc(N2CCN(CCn3c(=O)sc4c3nc(N)n3nc(-c5ccco5)nc43)CC2)c(F)c1)C(=O)O` [Compound 39, 2-(4-(4-(2-(5-amino-8-(furan-2-yl)-2-oxothiazolo[5,4-e][1,2,4]triazolo[1,5-c]pyrimidin-3(2H)-yl)ethyl)piperazin-1-yl)-3-fluorophenoxy)-2-methylpropanoic acid]: in data set [1], the efflux ratio at 120 min, 2 μM was found to be 110. In addition, the IC50 in data set [2] is 5.3 nM; in data set [2] (setting [10]), 1 nM; in data set [2] (setting [11]), 12 nM; in data set [2] (setting [6]) it was 150 nM; in data set [3] (setting [7]), 0.8 nM; in data set [3] (setting [8]), 15 nM. In addition, in data set [3] (setting [9]), the IC50 worked out at 719 nM.

In the case of `CN(C)CCNC(=O)c1ccc(N2CCN(CCn3c(=O)sc4c3nc(N)n3nc(-c5ccco5)nc43)CC2)c(F)c1` [Compound 32, 4-(4-(2-(5-amino-8-(furan-2-yl)-2-oxothiazolo[5,4-e][1,2,4]triazolo[1,5-c]pyrimidin-3(2H)-yl)ethyl)piperazin-1-yl)-N-(2-(dimethylamino)ethyl)-3-fluorobenzamide], in data set [1], the efflux ratio at 120 min, 2 μM was 329. Also, the half-maximal inhibitory concentration (IC50) in data set [2] (setting [6]) turned out to be 28 nM; in data set [3] (setting [7]) it was 4.3 nM; in data set [3] (setting [8]) it was 7 nM; in data set [3] (setting [9]) it was 356 nM.

Regarding `Nc1nc2c(sc(=O)n2CCN2CCN(c3cc(OCC(=O)O)c(F)cc3F)CC2)c2nc(-c3ccco3)nn12` [Compound 43, 2-(5-(4-(2-(5-amino-8-(furan-2-yl)-2-oxothiazolo[5,4-e][1,2,4]triazolo[1,5-c]pyrimidin-3(2H)-yl)ethyl)piperazin-1-yl)-2,4-difluorophenoxy)acetic acid], the efflux ratio at 120 min, 2 μM in data set [1] was found to be 164. Moreover, the 50% inhibitory concentration (IC50) is 51 nM in data set [2] (setting [6]), 0.2 nM in data set [3] (setting [7]), 1 nM in data set [3] (setting [8]) and 36 nM in data set [3] (setting [9]).

With `COCCOc1ccc(N2CCN(CCn3ncc4c3nc(N)n3nc(-c5ccco5)nc43)CC2)cc1` [Preladenant], the “Score (locomotion / immobility)” value is on record as “+” in data set [5] (1 mg/kg PO 30 min prior to CGS21680) and 0 in data set [5] (10 mg/kg PO 30 min prior to CGS21680). Also, the “effect on CGS21680 induced immobility” value in data set [5] (P.O. at 10 mg/kg, 30 min prior to CGS21680) is “inhibited CGS21680 induced immobility”.

Regarding `Nc1nc2c(sc(=O)n2CCN2CCN(c3ccc(OCc4n[nH]c(=O)o4)cc3F)CC2)c2nc(-c3ccco3)nn12` [Compound 2, 5-((4-(4-(2-(5-amino-8-(furan-2-yl)-2-oxothiazolo[5,4-e][1,2,4]triazolo[1,5-c]pyrimidin-3(2H)-yl)ethyl)piperazin-1-yl)-3-fluorophenoxy)methyl)-1,3,4-oxadiazol-2(3H)-one], in data set [1], the efflux ratio at 120 min, 2 μM turned out to be 28. Further, the half-inhibitory concentration (IC50) is 0.9 nM in data set [2] (setting [10]); 18 nM in data set [2] (setting [6]); 0.3 nM in data set [3] (setting [7]); 17 nM in data set [3] (setting [8]); 708 nM in data set [3] (setting [9]).

As to `Nc1nc2c(sc(=O)n2CCN2CCN(c3ccc(OCC(=O)O)cc3F)CC2)c2nc(-c3ccco3)nn12` [Compound 35, 2-(4-(4-(2-(5-amino-8-(furan-2-yl)-2-oxothiazolo[5,4-e][1,2,4]triazolo[1,5-c]pyrimidin-3(2H)-yl)ethyl)piperazin-1-yl)-3-fluorophenoxy)acetic acid], the efflux ratio at 120 min, 2 μM in data set [1] worked out at 26. Besides, the IC50 in data set [2] was determined as 3.9 nM; in data set [2] (setting [10]), 0.6 nM; in data set [2] (setting [11]), 0.5 nM; in data set [2] (setting [6]), 84 nM; in data set [3] (setting [7]), 0.7 nM; in data set [3] (setting [8]) it was 13 nM. Moreover, in data set [3] (setting [9]), the IC50 came out at 378 nM.

Consider `Nc1nc2c(sc(=O)n2CCN2CCN(c3ccc(C(=O)O)cc3F)CC2)c2nc(-c3ccco3)nn12` [Compound 44, 4-(4-(2-(5-amino-8-(furan-2-yl)-2-oxothiazolo[5,4-e][1,2,4]triazolo[1,5-c]pyrimidin-3(2H)-yl)ethyl)piperazin-1-yl)-3-fluorobenzoic acid], for which the efflux ratio at 120 min, 2 μM in data set [1] came to 69. In addition, the IC50 amounted to 33 nM in data set [2] (setting [6]), 0.5 nM in data set [3] (setting [7]), 11 nM in data set [3] (setting [8]) and 127 nM in data set [3] (setting [9]).

The values above are taken from patent publication US10995101B2, “2-oxo-thiazole derivatives as A2A inhibitors and compounds for use in the treatment of cancers” (iTeos Therapeutics SA, priority 2017, dated 2021).
